Measurements from patent EP0674651B1, “SUBSTITUTED 6-AZAANDROSTENONES” (priority 1992, dated 1994).

Columns and labels:
[1] = target: T1, human type 1 5α-reductase (Homo sapiens, UniProt P18405); assay: 5α-reductase in vitro inhibitory activity, human type 1
T1 sequence (P18405 1-259): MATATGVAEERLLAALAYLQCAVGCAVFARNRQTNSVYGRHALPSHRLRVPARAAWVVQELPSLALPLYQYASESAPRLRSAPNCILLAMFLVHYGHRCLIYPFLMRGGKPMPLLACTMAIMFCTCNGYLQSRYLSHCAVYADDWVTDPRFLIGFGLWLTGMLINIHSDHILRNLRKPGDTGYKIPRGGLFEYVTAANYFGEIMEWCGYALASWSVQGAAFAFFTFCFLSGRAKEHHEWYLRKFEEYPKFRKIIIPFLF
Description: (§1) Microsomes were prepared by homogenization of the tissue or cells, followed by differential centrifugation of the homogenate. […] Corresponding incubations were carried out with no test compound as a control study.
For type 2 IC50 measurements, assay components except testosterone were preincubated for 20 minutes at pH 6.0, and following the addition of 8nM testosterone the assays were allowed to proceed for 20-40 minutes. The percentage of conversion of testosterone to DHT in the presence of test compounds compared to the corresponding conversion in the control study was estimated using high pressure liquid chromatography (HPLC) with radiochemical detection.

[2] = target: T2, human type 2 5α-reductase (Homo sapiens, UniProt P31213); assay: 5α-reductase in vitro inhibitory activity, human type 2
T2 sequence (P31213 1-254): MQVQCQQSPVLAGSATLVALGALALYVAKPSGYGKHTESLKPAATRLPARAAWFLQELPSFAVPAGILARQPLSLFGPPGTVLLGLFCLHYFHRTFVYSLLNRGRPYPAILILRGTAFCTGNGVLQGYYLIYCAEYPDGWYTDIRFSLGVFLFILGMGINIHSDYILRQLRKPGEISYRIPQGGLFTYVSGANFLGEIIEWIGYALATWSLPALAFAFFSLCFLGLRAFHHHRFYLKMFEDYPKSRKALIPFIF
Description: as §1
The percentage of conversion of testosterone to DHT in the presence of test compounds compared to the corresponding conversion in the control study was estimated using high pressure liquid chromatography (HPLC) with radiochemical detection.

Compound	IC50 [1] [nM]	IC50 [2] [nM]
CC(C)(C)c1ccc(-c2ccc(C(F)(F)F)cc2NC(=O)[C@H]2CC[C@H]3[C@@H]4CNC5=CC(=O)CC[C@]5(C)[C@H]4CC[C@]23C)cc1 [Compound 135]	> 100	< 10
C[C@]12CC[C@H]3[C@@H](CNC4=CC(=O)CC[C@@]43C)[C@@H]1CC[C@@H]2C(=O)N(C(=O)NC1CCCCC1)C1CCCCC1 [Compound 96, 17β-(N-cyclohexyl-N-(N-cyclohexylcarbamoyl))-carbamoyl-6-azaandrost-4-en-3-one]	10 to 100	< 10
C[C@]12CC[C@H]3[C@@H](CNC4=CC(=O)CC[C@@]43C)[C@@H]1CC[C@@H]2C(=O)C1CC2CCC1C2 (stereo partly drawn) [Compound 68, 17β-(1-Oxo-1-(2-norbornyl)methyl)-6-azaandrost-4-en-3-one]	10 to 100	< 10
C[C@]12CC[C@H]3[C@@H](CNC4=CC(=O)CC[C@@]43C)[C@@H]1CC[C@@H]2C(=O)Nc1cccc(C(=O)O)c1 [Compound 137, 17β-N-(3-Carboxy)phenyl-carbamoyl-6-azaandrost-4-en-3-one]	> 100	< 10
COc1ccccc1Oc1ccc(C(F)(F)F)cc1NC(=O)[C@H]1CC[C@H]2[C@@H]3CNC4=CC(=O)CC[C@]4(C)[C@H]3CC[C@]12C [Compound 80]	10 to 100	< 10
COC(=O)c1sc(C(C)(C)C)cc1NC(=O)[C@H]1CC[C@H]2[C@@H]3CNC4=CC(=O)CC[C@]4(C)[C@H]3CC[C@]12C [Compound 132, 17β-N-3-(2-Carbomethoxy-5-t-butyl)thiophenyl-carbamoyl-6-azaandrost-4-en-3-one]	10 to 100	< 10
C[C@]12CC[C@H]3[C@@H](CNC4=CC(=O)CC[C@@]43C)[C@@H]1CC[C@@H]2C(=O)Nc1cccc2c1C(=O)c1ccccc1-2 [Compound 138, 17β-N-1-(9-Fluorenonyl)-carbamoyl-6-azaandrost-4-en-3-one]	10 to 100	< 10
C[C@]12CC[C@H]3[C@@H](CNC4=C(Cl)C(=O)CC[C@@]43C)[C@@H]1CC[C@@H]2C(=O)Nc1cc(C(F)(F)F)ccc1C(F)(F)F [Compound 126, 17β-N-(2,5-bis(Trifluoromethyl))phenyl-carbamoyl-6-azaandrost-4-chloro-4-en-3-one]	< 10	< 10
C[C@]12CC[C@H]3[C@@H](CNC4=CC(=O)CC[C@@]43C)[C@@H]1CC[C@@H]2C(=O)NC1(c2ccc(C(F)(F)F)cc2)CCCC1 [Compound 106, 17β-N-1-(4-Trifluoromethylphenyl)cyclopentyl-carbamoyl-6-azaandrost-4-en-3-one]	< 10	< 10
CC(C)(C)c1ccc(C(NC(=O)[C@H]2CC[C@H]3[C@@H]4CNC5=CC(=O)CC[C@]5(C)[C@H]4CC[C@]23C)C(C)(C)C)cc1 (stereo partly drawn) [Compound 73, 17β-N-(1-t-Butyl-1-(4-t-butylphenyl))methyl-carbamoyl-6-azaandrost-4-en-3-one]	< 10	< 10
CC1(C)CC(NC(=O)[C@H]2CC[C@H]3[C@@H]4CNC5=CC(=O)CC[C@]5(C)[C@H]4CC[C@]23C)CC(C)(C)C1 [Compound 59, 17β-N-(3,5-Tetramethyl)cyclohexyl-carbamoyl-6-azaandrost-4-en-3-one]	> 100	10 to 100
CC(C)(C)c1ccc(C2(NC(=O)[C@H]3CC[C@H]4[C@@H]5CNC6=CC(=O)CC[C@]6(C)[C@H]5CC[C@]34C)C3CCCC2CCC3)cc1 (stereo partly drawn) [Compound 144, 17β-N-9-(4-t-Butylphenyl)bicyclo[3.3.1]nonyl-carbamoyl-6-azaandrost-4-en-3-one]	< 10	< 10
C[C@]12CC[C@H]3[C@@H](CNC4=CC(=O)CC[C@@]43C)[C@@H]1CC[C@@H]2C(=O)NC1(c2ccc(F)cc2)CCCC1 [Compound 104, 17β-N-1-(4-Fluorophenyl)cyclopentyl-carbamoyl-6-azaandrost-4-en-3-one]	10 to 100	< 10
C[C@]12CC[C@H]3[C@@H](CNC4=CC(=O)CC[C@@]43C)[C@@H]1CC[C@@H]2C(=O)Nc1cc(C(F)(F)F)ccc1Oc1ccc(Cl)cc1 [Compound 81, 17β-N-(2-(O-4-Chlorophenyl)-5-trifluoromethyl)phenyl-carbamoyl-6-azaandrost-4-en-3-one]	10 to 100	< 10
CC(C)(C)c1ccc(C(F)(F)F)cc1NC(=O)[C@H]1CC[C@H]2[C@@H]3CNC4=CC(=O)CC[C@]4(C)[C@H]3CC[C@]12C [Compound 87, 17β-N-(2-t-Butyl-5-trifluoromethyl)phenyl-carbamoyl-6-azaandrost-4-en-3-one]	< 10	< 10
CC(C)(C)c1ccc(C2(NC(=O)[C@H]3CC[C@H]4[C@@H]5CNC6=CC(=O)CC[C@]6(C)[C@H]5CC[C@]34C)CCCCC2)cc1 [Compound 122, 17β-N-1-(4-t-Butylphenyl)cyclohexyl-carbamoyl-6-azaandrost-4-en-3-one]	< 10	< 10
CC(C)(C)c1ccc(NC(=O)[C@H]2CC[C@H]3[C@@H]4CNC5=CC(=O)CC[C@]5(C)[C@H]4CC[C@]23C)cc1 [Compound 108, 17β-N-(4-t-Butyl)phenyl-carbamoyl-6-azaandrost-4-en-3-one]	10 to 100	< 10
CC(C)(C)c1ccc(-c2ccccc2)cc1NC(=O)[C@H]1CC[C@H]2[C@@H]3CNC4=CC(=O)CC[C@]4(C)[C@H]3CC[C@]12C [Compound 88, 17β-N-(2-t-Butyl-5-phenyl)phenyl-carbamoyl-6-azaandrost-4-en-3-one]	< 10	< 10
CC(C)(C)c1ccc(C(NC(=O)[C@H]2CC[C@H]3[C@@H]4CNC5=CC(=O)CC[C@]5(C)[C@H]4CC[C@]23C)c2ccccc2)cc1 (stereo partly drawn) [Compound 67, 17β-N-(1 -Phenyl-1-(4-t-butyl)phenyl)methyl-carbamoyl-6-azaandrost-4-en-3-one]	> 100	< 10
CCc1cc(Br)cc(CC)c1NC(=O)[C@H]1CC[C@H]2[C@@H]3CNC4=CC(=O)CC[C@]4(C)[C@H]3CC[C@]12C [Compound 70, 17β-N-(2,6-Diethyl-4-bromo)phenyl-carbamoyl-6-azaandrost-4-en-3-one]	10 to 100	< 10
C[C@]12CC[C@H]3[C@@H](CNC4=CC(=O)CC[C@@]43C)[C@@H]1CC[C@@H]2C(=O)NC1(c2ccc(Cl)cc2)CCCCC1 [Compound 146, 17β-N-1-(4-Chlorophenyl)cyclohexyl-carbamoyl-6-azaandrost-4-en-3-one]	< 10	< 10
CCC1(CC)CC1(NC(=O)[C@H]1CC[C@H]2[C@@H]3CNC4=CC(=O)CC[C@]4(C)[C@H]3CC[C@]12C)c1ccc(-c2ccccc2)cc1 (stereo partly drawn) [Compound 130, 17β-N-(1-(4-Biphenyl)-2,2-diethyl)cyclopropyl-carbamoyl-6-azaandrost-4-en-3-one]	< 10	< 10
CC(C)(C)N(O)C(=O)[C@H]1CC[C@H]2[C@@H]3CNC4=CC(=O)CC[C@]4(C)[C@H]3CC[C@]12C [Compound 41, 17β-N-Hydroxy-N-t-butyl-carbamoyl-6-azaandrost-4-en-3-one]	10 to 100	–
C[C@]12CC[C@H]3[C@@H](CNC4=CC(=O)CC[C@@]43C)[C@@H]1CC[C@@H]2C(=O)NC(c1ccc(F)cc1)c1ccc(F)cc1 [Compound 24, 17β-N-Bis-(4-fluorophenyl)methyl-carbamoyl-6-azaandrost-4-en-3-one]	10 to 100	–
